Measured values: patent publication US20220119354A1, “DIAMINO-SUBSTITUTED PYRIDINES AND PYRIMIDINES AS HERBICIDES” (FMC Corporation, priority 2019, published 2022)

Assays:
Type in all cases: in vivo
[1] = test system: ryegrass, Italian (Lolium multiflorum); experiment: Test A postemergence, Italian ryegrass; settings: 0 to 100 scale
Procedure, shortened: (§1)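 Steps: plant seeds in loam/sand; spray soil (pre) or seedlings at 1–2 leaves, 2–10 cm (post) with compound in solvent plus surfactant; keep in greenhouse ~10 d; score injury visually against untreated controls, 0–100.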

[2] = test system: ragweed (common ragweed, Ambrosia elatior); experiment: Test A preemergence, ragweed; settings: 0 to 100 scale; for Ragweed plant response rating: 0 is no effect, 100 is complete control
Procedure, shortened: as §1

[3] = test system: ragweed (common ragweed, Ambrosia elatior); experiment: Test A postemergence, ragweed; settings: 0 to 100 scale
Procedure, shortened: as §1

[4] = test system: blackgrass (Alopecurus myosuroides); experiment: Test A postemergence, blackgrass; settings: 0 to 100 scale
Procedure, shortened: as §1

[5] = test system: barnyardgrass (Echinochloa crus-galli); experiment: Test B flooded paddy test, barnyardgrass; settings: Flood, 250 g ai/ha, applied to paddy water, 2-leaf stage, visual evaluation after 13 to 15 d
Procedure, shortened: (§2)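 Plants grown to 2-leaf stage. Compounds applied directly into paddy water flooded 3 cm above soil, with that depth kept throughout. After 13–15 d in greenhouse, visual rating versus controls on a 0–100 scale (0 no effect, 100 complete control).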

kochia (Kochia scoparia) [6] = experiment: Test A postemergence, kochia; settings: 0 to 100 scale
Procedure, shortened: as §1

[7] = test system: sedge, umbrella (small-flower umbrella sedge, Cyperus difformis); experiment: Test B flooded paddy test, umbrella sedge; settings: Flood, 250 g ai/ha, applied to paddy water, 2-leaf stage, visual evaluation after 13 to 15 d
Procedure, shortened: as §2

[8] = test system: pigweed (Amaranthus retroflexus); experiment: Test A postemergence, pigweed; settings: 0 to 100 scale
Procedure, shortened: as §1

[9] = test system: foxtail, giant (Setaria faberii); experiment: Test A preemergence, giant foxtail; settings: 0 to 100 scale; for Foxtail, Giant plant response rating: 0 is no effect, 100 is complete control
Procedure, shortened: as §1

[10] = test system: galium (catchweed bedstraw, Galium aparine); experiment: Test A postemergence, galium; settings: 0 to 100 scale
Procedure, shortened: as §1

kochia (Kochia scoparia) [11] = experiment: Test A preemergence, kochia; settings: 0 to 100 scale; for Kochia plant response rating: 0 is no effect, 100 is complete control
Procedure, shortened: as §1

rice (Oryza sativa) = experiment: Test B flooded paddy test, rice; settings: Flood, 250 g ai/ha, applied to paddy water, 2-leaf stage, visual evaluation after 13 to 15 d
Procedure, shortened: as §2

[12] = test system: foxtail, giant (Setaria faberii); experiment: Test A postemergence, giant foxtail; settings: 0 to 100 scale
Procedure, shortened: as §1

[13] = test system: pigweed (Amaranthus retroflexus); experiment: Test A preemergence, pigweed; settings: 0 to 100 scale; for Pigweed plant response rating: 0 is no effect, 100 is complete control
Procedure, shortened: as §1

[14] = test system: ryegrass, Italian (Lolium multiflorum); experiment: Test A preemergence, Italian ryegrass; settings: 0 to 100 scale; for Ryegrass, Italian plant response rating: 0 is no effect, 100 is complete control
Procedure, shortened: as §1

corn (Zea mays) = experiment: Test A postemergence, corn; settings: 0 to 100 scale
Procedure, shortened: as §1

[15] = test system: wheat (Triticum aestivum); experiment: Test A postemergence, wheat; settings: 0 to 100 scale
Procedure, shortened: as §1

[16] = test system: barnyardgrass (Echinochloa crus-galli); experiment: Test A postemergence, barnyardgrass; settings: 0 to 100 scale
Procedure, shortened: as §1

[17] = test system: barnyardgrass (Echinochloa crus-galli); experiment: Test A preemergence, barnyardgrass; settings: 0 to 100 scale; for Barnyardgrass plant response rating: 0 is no effect, 100 is complete control
Procedure, shortened: as §1

[18] = test system: ducksalad (Heteranthera limosa); experiment: Test B flooded paddy test, ducksalad; settings: Flood, 250 g ai/ha, applied to paddy water, 2-leaf stage, visual evaluation after 13 to 15 d
Procedure, shortened: as §2

[19] = 125 g ai/ha, 0 no effect, 100 complete control
[20] = 500 g ai/ha, 0 no effect, 100 complete control

## Nc1nc(NC(c2coc3ccccc23)C2CC2)ncc1C(F)(F)F (racemic) [Compound 95]
[1]; [19]
  Plant response rating, Ryegrass, Italian: 50
[1]; [20]
  Plant response rating, Ryegrass, Italian: 100
[2]; 125 g ai/ha
  Ragweed plant response rating: 50
[2]; 500 g ai/ha
  Ragweed plant response rating: 100
[3]; [19]
  Plant response rating, Ragweed: 60
[3]; [20]
  Plant response rating, Ragweed: 80
[4]; [19]
  Plant response rating, Blackgrass: 0
[4]; [20]
  Plant response rating, Blackgrass: 70
[5]
  Plant response rating, Barnyardgrass (0 to 100 scale, 0 is no effect, 100 is complete control): 35
Kochia (Kochia scoparia) [6]; [19]
  Plant response rating, Kochia: 80
Kochia (Kochia scoparia) [6]; [20]
  Plant response rating, Kochia: 90
[7]
  Plant response rating, Sedge, Umbrella (0 to 100 scale, 0 is no effect, 100 is complete control): 70
[8]; [19]
  Plant response rating, Pigweed: 100
[8]; [20]
  Plant response rating, Pigweed: 100
[9]; 125 g ai/ha
  Foxtail, Giant plant response rating: 90
[9]; 500 g ai/ha
  Foxtail, Giant plant response rating: 100
[10]; [19]
  Plant response rating, Galium: 80
[10]; [20]
  Plant response rating, Galium: 80
Kochia (Kochia scoparia) [11]; 125 g ai/ha
  Kochia plant response rating: 80
Kochia (Kochia scoparia) [11]; 500 g ai/ha
  Kochia plant response rating: 90
Rice (Oryza sativa)
  Plant response rating, Rice (0 to 100 scale, 0 is no effect, 100 is complete control): 0
[12]; [19]
  Plant response rating, Foxtail, Giant: 50
[12]; [20]
  Plant response rating, Foxtail, Giant: 90
[13]; 125 g ai/ha
  Pigweed plant response rating: 90
[13]; 500 g ai/ha
  Pigweed plant response rating: 100
[14]; 125 g ai/ha
  Ryegrass, Italian plant response rating: 40
[14]; 500 g ai/ha
  Ryegrass, Italian plant response rating: 60
Corn (Zea mays); [19]
  Plant response rating, Corn: 10
Corn (Zea mays); [20]
  Plant response rating, Corn: 30
[15]; [19]
  Plant response rating, Wheat: 0
[15]; [20]
  Plant response rating, Wheat: 30
[16]; [19]
  Plant response rating, Barnyardgrass: 0
[16]; [20]
  Plant response rating, Barnyardgrass: 70
[17]; 125 g ai/ha
  Barnyardgrass plant response rating: 80
[17]; 500 g ai/ha
  Barnyardgrass plant response rating: 100
[18]
  Plant response rating, Ducksalad (0 to 100 scale, 0 is no effect, 100 is complete control): 55

## CC(Nc1ncc(C(F)(F)F)c(N)n1)c1coc2cccc(F)c12 (racemic) [Compound 96]
[1]; [19]
  Plant response rating, Ryegrass, Italian: 0
[1]; [20]
  Plant response rating, Ryegrass, Italian: 0
[2]; 125 g ai/ha
  Ragweed plant response rating: 50
[2]; 500 g ai/ha
  Ragweed plant response rating: 70
[3]; [19]
  Plant response rating, Ragweed: 20
[3]; [20]
  Plant response rating, Ragweed: 80
[4]; [19]
  Plant response rating, Blackgrass: 0
[4]; [20]
  Plant response rating, Blackgrass: 30
[5]
  Plant response rating, Barnyardgrass (0 to 100 scale, 0 is no effect, 100 is complete control): 0
Kochia (Kochia scoparia) [6]; [19]
  Plant response rating, Kochia: 20
Kochia (Kochia scoparia) [6]; [20]
  Plant response rating, Kochia: 90
[7]
  Plant response rating, Sedge, Umbrella (0 to 100 scale, 0 is no effect, 100 is complete control): 0
[8]; [19]
  Plant response rating, Pigweed: 60
[8]; [20]
  Plant response rating, Pigweed: 90
[9]; 125 g ai/ha
  Foxtail, Giant plant response rating: 20
[9]; 500 g ai/ha
  Foxtail, Giant plant response rating: 80
[10]; [19]
  Plant response rating, Galium: 60
[10]; [20]
  Plant response rating, Galium: 80
Kochia (Kochia scoparia) [11]; 125 g ai/ha
  Kochia plant response rating: 0
Kochia (Kochia scoparia) [11]; 500 g ai/ha
  Kochia plant response rating: 0
Rice (Oryza sativa)
  Plant response rating, Rice (0 to 100 scale, 0 is no effect, 100 is complete control): 0
[12]; [19]
  Plant response rating, Foxtail, Giant: 0
[12]; [20]
  Plant response rating, Foxtail, Giant: 60
[13]; 125 g ai/ha
  Pigweed plant response rating: 70
[13]; 500 g ai/ha
  Pigweed plant response rating: 90
[14]; 125 g ai/ha
  Ryegrass, Italian plant response rating: 0
[14]; 500 g ai/ha
  Ryegrass, Italian plant response rating: 50
Corn (Zea mays); [19]
  Plant response rating, Corn: 40
Corn (Zea mays); [20]
  Plant response rating, Corn: 60
[15]; [19]
  Plant response rating, Wheat: 0
[15]; [20]
  Plant response rating, Wheat: 0
[16]; [19]
  Plant response rating, Barnyardgrass: 30
[16]; [20]
  Plant response rating, Barnyardgrass: 40
[17]; 125 g ai/ha
  Barnyardgrass plant response rating: 0
[17]; 500 g ai/ha
  Barnyardgrass plant response rating: 90
[18]
  Plant response rating, Ducksalad (0 to 100 scale, 0 is no effect, 100 is complete control): 0

## C[C@@H](Nc1ncc(C(F)(F)F)c(N)n1)c1ccc2ccccc2c1 [Compound 1]
[1]; 125 g ai/ha
  Plant response rating, Ryegrass, Italian: 0
[1]; 500 g ai/ha
  Plant response rating, Ryegrass, Italian: 20
[2]; 125 g ai/ha
  Plant response rating, Ragweed: 0
[2]; 500 g ai/ha
  Plant response rating, Ragweed: 0
[3]; 125 g ai/ha
  Plant response rating, Ragweed: 0
[3]; 500 g ai/ha
  Plant response rating, Ragweed: 50
[4]; 125 g ai/ha
  Plant response rating, Blackgrass: 0
[4]; 500 g ai/ha
  Plant response rating, Blackgrass: 0
[5]
  Plant response rating, Barnyardgrass (0 to 100 scale, 0 is no effect, 100 is complete control): 0
Kochia (Kochia scoparia) [6]; 125 g ai/ha
  Plant response rating, Kochia: 0
Kochia (Kochia scoparia) [6]; 500 g ai/ha
  Plant response rating, Kochia: 50
[7]
  Plant response rating, Sedge, Umbrella (0 to 100 scale, 0 is no effect, 100 is complete control): 0
[8]; 125 g ai/ha
  Plant response rating, Pigweed: 80
[8]; 500 g ai/ha
  Plant response rating, Pigweed: 100
[9]; 125 g ai/ha
  Plant response rating, Foxtail, Giant: 0
[9]; 500 g ai/ha
  Plant response rating, Foxtail, Giant: 30
[10]; 125 g ai/ha
  Plant response rating, Galium: 30
[10]; 500 g ai/ha
  Plant response rating, Galium: 70
Kochia (Kochia scoparia) [11]; 125 g ai/ha
  Plant response rating, Kochia: 0
Kochia (Kochia scoparia) [11]; 500 g ai/ha
  Plant response rating, Kochia: 10
Rice (Oryza sativa)
  Plant response rating, Rice (0 to 100 scale, 0 is no effect, 100 is complete control): 0
[12]; 125 g ai/ha
  Plant response rating, Foxtail, Giant: 0
[12]; 500 g ai/ha
  Plant response rating, Foxtail, Giant: 0
[13]; 125 g ai/ha
  Plant response rating, Pigweed: 10
[13]; 500 g ai/ha
  Plant response rating, Pigweed: 90
[14]; 125 g ai/ha
  Plant response rating, Ryegrass, Italian: 0
[14]; 500 g ai/ha
  Plant response rating, Ryegrass, Italian: 0
Corn (Zea mays); 125 g ai/ha
  Plant response rating, Corn: 0
Corn (Zea mays); 500 g ai/ha
  Plant response rating, Corn: 0
[15]; 125 g ai/ha
  Plant response rating, Wheat: 0
[15]; 500 g ai/ha
  Plant response rating, Wheat: 0
[16]; 125 g ai/ha
  Plant response rating, Barnyardgrass: 0
[16]; 500 g ai/ha
  Plant response rating, Barnyardgrass: 0
[17]; 125 g ai/ha
  Plant response rating, Barnyardgrass: 0
[17]; 500 g ai/ha
  Plant response rating, Barnyardgrass: 0
[18]
  Plant response rating, Ducksalad (0 to 100 scale, 0 is no effect, 100 is complete control): 0
